Entries after “also recorded” stand apart in the source; their conditions may differ. Where two headings read alike, the source gives them in different places.
Tests used:
[1] = Unbound plasma and brain levels of lasmiditan in rats from dural PPE studies; type: in vivo, Sprague-Dawley rats; conditions: rat; for concentration at 1 h / concentration at 24 h: male, Sprague-Dawley; for concentration at 1 h: 1 hr post-dose; for concentration at 24 h: 24 hrs post-dose
Protocol: Lasmiditan-hemisuccinate is dissolved in sterile water. All doses of lasmiditan are reported as free base equivalent doses, accounting for the weight of the salt. Envigo Sprague-Dawley, Sprague-Dawley male rats (250-350 grams, n=4/group) are fasted overnight prior to dosing. The animals are orally gavaged (2 mL/kg dose volume) with test compound or vehicle one hour prior to stimulation time and returned to their cages with only water available. Approximately 50 minutes post-dosing, the rats are anesthetized with Nembutal (65 mg/kg, ip.) and implanted with stainless steel stimulating electrodes (Rhodes Medical Systems, Inc.) to a depth of 9.2 mm. from the dura. The femoral vein is exposed and fluorescein isothiocyanate-labeled bovine serum albumin (FITC-BSA) (20 mg/kg, iv.), is injected into the femoral vein 2 minutes prior to stimulation. The FITC-BSA functions as a marker for protein extravasation. The left trigeminal ganglion is stimulated for 5 minutes at a current intensity of 1.0 mA (5 Hz, 5 msec pulse duration) with a Model S48 Grass Instrument Stimulator with PSIU6 photoelectric isolation unit (Grass-Telefactor). Five minutes following stimulation, a blood sample is collected by cardiac puncture and the rats are sacrificed by exsanguination with 40 ml of saline. One milliliter of blood is collected and placed in a 1.5 ml EDTA coated tube (Fisher Cat. #540734) on ice. Plasma is separated via centrifugation at 10,000 rpm (941 g) for thirty minutes at 4° C. The top of the skull is removed to collect the brain and dural membranes. The brain and plasma samples are frozen at −80° C. until thawed for compound quantification. The membrane samples are removed from both hemispheres, rinsed with water, and spread flat on microscope slides. The slides are dried for 15 minutes on a slide warmer, then the tissues are cover-slipped with a 70% glycerol/water solution. A fluorescence microscope (Zeiss) equipped with a grating monochromator and a spectrophotometer is used to quantify the amount of FITC-BSA dye in each dural sample. The extravasation induced by electrical stimulation of the trigeminal ganglion is an ipsilateral effect (i.e. occurs only on the side of the dura in which the trigeminal ganglion was stimulated). This allows the other (unstimulated) half of the dura to be used as the control. The ratio of extravasation in the dura from the stimulated side versus the unstimulated side is calculated and reported as the extravasation ratio for each animal. The mean extravasation ratio and standard error of the mean (SEM) are calculated for each treatment group. Controls yield a ratio of approximately 1.8. In contrast, a compound which effectively prevents the extravasation in the dura from the stimulated side would have a ratio of approximately 1. The resulting data are analyzed with a one-way ANOVA followed by Dunnett's post hoc to determine statistical significance (p<0.05). Levels of compound in the plasma and brain samples for each animal are analyzed according to methods known to the skilled artisan. Evaluation of Compound Potency 24 or 48 Hours Following Oral Administration Envigo Sprague-Dawley, Sprague-Dawley male rats (250-350 grams, n=4/group) are fasted overnight prior to dosing for the duration p.o. study. The animals are orally gavaged with test compound or vehicle and returned to their cages with only water available; with food returned 1 hour later. Either 24 or 48 post-dose, the animals are anesthetized with Nembutal (65 mg/kg, ip.) and placed in a stereotaxic frame (David Kopf Instruments). The remainder of the protocol is identical to the method immediately above for Evaluation of Compound Potency 1 Hour Following Oral Administration. […] However, the unbound plasma and brain concentrations measured 24 hours following the administration of the 10 mg/kg dose, are not different from the exposures associated with the non-efficacious 0.1 mg/kg dose at one hour. […]

[2] = tested on: patients with migraine; experiment: GLADIATOR open-label Phase 3 study, long-term intermittent lasmiditan; MIDAS interim analysis; type: in vivo, human; conditions: for change in MIDAS migraine disability, headache days and headache pain/severity over time: lasmiditan 100 mg or 200 mg, up to 12 months
Protocol: The placebo-controlled Phase 3 studies SAMURAI (NCT02439320) and SPARTAN (NCT02605174) evaluated lasmiditan 50 mg [SPARTAN only], 100 mg and 200 mg. […] GLADIATOR (NCT02565186) is a prospective randomized open-label Phase 3 study to evaluate long-term intermittent use of lasmiditan (100 mg or 200 mg) for acute treatment of migraine. An interim analysis of the effects of lasmiditan on migraine disability assessed with the MIDAS scale in GLADIATOR is described below, and has provided surprising and unexpected evidence of persistent beneficial effects in migraine patients.
Patients who completed SAMURAI or SPARTAN were offered participation in GLADIATOR with randomization to lasmiditan 100 mg or lasmiditan 200 mg which represents an uncontrolled, open-label study. […] This interim analysis includes patients with MIDAS score data at baseline of GLADIATOR and post-baseline assessments. The analysis presented is based on the MIDAS questionnaire administered at baseline and at months 3, 6, 9 and 12. An additional analysis was also conducted in the subgroup of patients who completed 12 months. Changes were modelled using a mixed model repeated measures analysis MIDAS measures lost time due to migraine in days over 3 months. Domains included are activity limitations at work, household work or family, social and leisure activity.
Key inclusion criteria were patients who were eligible for SAMURAI or SPARTAN and had at least moderate migraine disability (MIDAS score ≥11). Patients were randomized 1:1 for acute treatment of migraine with either lasmiditan 100 mg for up to 12 months, or lasmiditan 200 mg for up to 12 months. Patients used lasmiditan as the first treatment for each new migraine attack (≤4 hours of Migraine pain onset). […] Assessments of safety and efficacy were conducted, including MIDAS questionnaires at baseline and months 3, 6, 9 and 12. MIDAS Questionnaire (See for example Stewart et al., Neurology 1999; 53:988-94, Stewart et al., Neurology 2001; 56: S20-8) The sum of Questions 1-5 below represents the Total MIDAS score. • 1. […]

[3] = brain, 10 mg/kg po, read-out: Unbound Brain Cone (mean ± SD; n = 4)
[4] = plasma, 10 mg/kg po, read-out: Unbound Plasma Cone (mean ± SD; n = 4)
[5] = 10 mg/kg po, 48 hrs post-dose, BQL = below quantitation level

## CN1CCC(C(=O)c2cccc(NC(=O)c3c(F)cc(F)cc3F)n2)CC1 [Lasmiditan, 2,4,6-trifluoro-N-[6-(1-methyl-piperidin-4-ylcarbonyl)-pyridin-2-yl]-benzamide]
[1]; brain, 0.1 mg/kg po, read-out: Unbound Brain Cone (mean ± SD; n = 4)
  concentration at 1 h: 2 ± 0.1 nM
[1]; brain, 1 mg/kg po, read-out: Unbound Brain Cone (mean ± SD; n = 4)
  concentration at 1 h: 16.6 ± 3.6 nM
[1]; [3]
  concentration at 1 h: 242 ± 95 nM
  concentration at 24 h: 2.1 ± 0.9 nM
[1]; plasma, 0.1 mg/kg po, read-out: Unbound Plasma Cone (mean ± SD; n = 4)
  concentration at 1 h: 6 ± 1.9 nM
[1]; plasma, 1 mg/kg po, read-out: Unbound Plasma Cone (mean ± SD; n = 4)
  concentration at 1 h: 67 ± 19.8 nM
[1]; [4]
  concentration at 1 h: 767 ± 254 nM
  concentration at 24 h: 6.2 ± 2.5 nM
[1]; [5]
  Unbound Brain Cone (mean ± SD; n = 4): BQL
  Unbound Plasma Cone (mean ± SD; n = 4): BQL
[2]; GLADIATOR MIDAS outcomes
  difference between lasmiditan 100 mg and 200 mg doses, any outcome: no significant differences
[2]
  change in MIDAS migraine disability, headache days and headache pain/severity over time: decreases over time
[2]; listed as lasmiditan
  change in MIDAS migraine disability, headache days and headache pain/severity over time: large, clinically meaningful improvement; also recorded: a decrease over the 12-month treatment period

— patent publication US12138254B2, “Chronic nightly dosing of lasmiditan for migraine prevention” (Eli Lilly and Company, priority 2018, dated 2024)
